Test results taken from patent US10456404B2, “Targeting cGMP-related phosphodiesterases to reduce cyst formation in cystic kidney disease, and related materials and methods” (Indiana University Research and Technology Corporation, priority 2015, dated 2019).
Like-named read-outs stand apart in the source and are kept apart here.

How the values were obtained:
PDE6 = details: cited from earlier work
[1] = system: Telomerase immortalized polycystic kidney cells; assay: cyst formation by immortalized polycystic kidney cells in 3D forskolin-supplemented Matrigel culture; format: cell-based, human
Description: Telomerase immortalized polycystic kidney cells, as described in Herbert et al. (PLoS One (2013), 8(1): e55191; which is hereby incorporated by reference in its entirety), were used to test the effect of sildenafil citrate on renal cyst growth. Cells from polycystic kidneys removed from patients for medically indicated reasons, removed from any research program, were obtained. The cells were obtained from the pathology laboratory. Cyst tissue was microdissected from the kidneys, and cells were isolated and grown in primary culture. The cells were then immortalized using retroviral techniques well known in the art. Following confirmation of an immortal phenotype, it was established that the polycystic cyst epithelial cells formed cyst structures when grown in 3D forskolin-supplemented Matrigel culture. Immortalized polycystic kidney cells were treated with microgram dosages of sildenafil citrate of 4 μg/ml, 2 μg/ml, and 1 μg/ml. […] Matched controls were sham-treated with vehicle but no drug. […] Dosages tested were consistent with the range of serum drug levels that occur when the drug is prescribed for erectile dysfunction.

[2] = system: preclinical cognition models; details: in vivo; cited from earlier work
cGMP = details: in vivo; cited from earlier work
[3] = system: amyloid precursor protein overexpressing transgenic mice; details: cited from earlier work
PDE5 = PDE5 (Homo sapiens, UniProt O76074); details: cited from earlier work
human PDE9 = human PDE9 (Homo sapiens, UniProt O76083); details: cited from earlier work
Sequence of human PDE9 (O76083 whole entry): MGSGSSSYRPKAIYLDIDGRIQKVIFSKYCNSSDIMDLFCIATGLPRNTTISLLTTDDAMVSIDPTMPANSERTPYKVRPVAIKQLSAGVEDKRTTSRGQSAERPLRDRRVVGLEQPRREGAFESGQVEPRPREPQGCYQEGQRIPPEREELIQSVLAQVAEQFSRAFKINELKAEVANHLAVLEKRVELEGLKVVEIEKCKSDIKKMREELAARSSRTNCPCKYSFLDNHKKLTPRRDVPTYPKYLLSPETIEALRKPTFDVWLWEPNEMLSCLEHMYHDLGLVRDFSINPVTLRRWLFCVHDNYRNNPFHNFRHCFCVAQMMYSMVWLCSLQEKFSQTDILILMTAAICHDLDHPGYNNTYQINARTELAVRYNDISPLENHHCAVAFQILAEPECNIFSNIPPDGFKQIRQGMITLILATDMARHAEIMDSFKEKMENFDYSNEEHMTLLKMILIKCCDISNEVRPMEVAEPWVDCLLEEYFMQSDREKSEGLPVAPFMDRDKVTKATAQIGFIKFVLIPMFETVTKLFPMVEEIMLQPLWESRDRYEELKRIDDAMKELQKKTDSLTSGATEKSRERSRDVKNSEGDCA

other PDEs = details: cited from earlier work
[4] = system: Telomerase immortalized polycystic kidney cells; assay: cyst formation by immortalized polycystic kidney cells in 3D forskolin-supplemented Matrigel culture; format: cell-based, human; details: for average cyst area vs vehicle sham-treated matched control: FIG. 1

CCCc1nc(C)c2c(=O)nc(-c3cc(S(=O)(=O)N4CCN(CC)CC4)ccc3OCC)[nH]n12 [Vardenafil, 2-[2-ethoxy-5-(4-ethylpiperazin-1-yl)sulfonylphenyl]-5-methyl-7-propyl-1H-imidazo[5,1-f][1,2,4]triazin-4-one]
PDE6 inhibition (PDE6): potent PDE6 inhibitor

CCCc1nn(C)c2c(=O)[nH]c(-c3cc(S(=O)(=O)N4CCN(C)CC4)ccc3OCC)nc12 [sildenafil, 5[2-ethoxy-5-(4-methyl-1-piperazinyl-sulphonyl)phenyl]-1-methyl-3-n-propyl-1,6-dihydro-7H-pyrazolo[4,3-d]pyrimidin-7-one]
large cysts in photographs ([1]; 1:250 dilution of drug in vehicle from a stock, FIG. 3B): No large cysts were observed
large cysts in photographs ([1]; 1:500 dilution of drug in vehicle from a stock, FIG. 4B): No large cysts were observed
large cysts in photographs ([1]; 1:1000 dilution of drug in vehicle from a stock, FIG. 5B): No large cysts were observed

C[C@@H]1CN(Cc2ncccn2)C[C@H]1c1nc2c(cnn2C2CCOCC2)c(=O)[nH]1 [PF-04447943, 6-[(3S,4S)-4-methyl-1-(pyrimidin-2-ylmethyl)pyrrolidin-3-yl]-1-(tetrahydro-2H-pyran-4-yl)-1,5-dihydro-4H-pyrazolo[3,4-d]pyrimidin-4-one]
memory in preclinical cognition models [2]: improves
synaptic plasticity [2]: enhances
cGMP in brain and cerebrospinal fluid (cGMP): elevates
decreases in dendritic spine density [3]: prevents

CCCc1nc(C)c2c(=O)[nH]c(-c3cc(S(=O)(=O)N4CCNCC4)ccc3OCC)nn12 [M1]
PDE5 inhibition potency relative to the parent drug (PDE5; parent drug vardenafil): reduced potency

C[C@H](Cc1nc2c(cnn2-c2ccccc2Cl)c(=O)[nH]1)C(F)(F)F [BAY 73-6691, 1-(2-chlorophenyl)-6-[(2R)-3,3,3-trifluoro-2-methylpropyl]-1,5-dihydro-4H-pyrazolo[3,4-d]pyrimidine-4-one]
inhibition of human PDE9 activity in vitro (human PDE9): selectively inhibit
activity against other PDEs (other PDEs): only moderate activity

CCCc1nn(C)c2c(=O)[nH]c(-c3cc(S(=O)(=O)N4CCNCC4)ccc3OCC)nc12 [UK-103,320]
PDE5 inhibition potency relative to the parent drug (PDE5; parent drug sildenafil): approximately 50%

CCCc1nn(C)c2c(=O)[nH]c(-c3cc(S(=O)(=O)N4CCN(C)CC4)ccc3OCC)nc12.O=C(O)CC(O)(CC(=O)O)C(=O)O [sildenafil citrate, 1-[[3-(6,7-dihydro-1-methyl-7-oxo-3-propyl-1H-pyrazolo[4,3-d]pyrimidin-5-yl)-4-ethoxyphenyl]sulfonyl]-4-methylpiperazine citrate]
average cyst area vs vehicle sham-treated matched control ([4]; 250 ng/ml, p<1.05 E−8): significantly reduced
average cyst area vs vehicle sham-treated matched control ([4]; 500 ng/ml, p<0.01): significantly reduced
dose response of cyst area reduction ([4]; 250, 500, 1000 ng/ml): No dose response
large cyst formation (cyst structures of greater than 150μ^2), frequency distribution ([4]; 250, 500, 1000 ng/ml, FIG. 2): completely inhibited
Average cyst size compared to control ([1]; 1 μg/ml, p<0.01): significantly decreased
average cyst area vs vehicle sham-treated matched control ([1]; 1000 ng/ml, p<0.01, FIG. 1): significantly reduced
Average cyst size compared to control ([1]; 2 μg/ml, p<0.01): significantly decreased
Average cyst size compared to control ([1]; 4 μg/ml, p<1 E−6): significantly decreased

CCCOc1ccccc1-c1nc2[nH][nH]nc-2c(=O)n1 [Zaprinast, 5-(2-propoxyphenyl)-2,3-dihydrotriazolo[4,5-d]pyrimidin-7-one]
PDE6 versus PDE5 inhibition potency (PDE6): inhibit PDE6 more potently than PDE5
